# Laboratory results reported in patent US20260091082A1, “CYCLIC PEPTIDE DERIVATIVE COMPOSITION FOR TREATING OR PREVENTING EYE DISEASE” (DKS Co. Ltd., priority 2022, published 2026).
# Where “and” joins values, the source holds several entries; their conditions need not be identical. Equal entries are not always repeated.
# System: anterior chamber aqueous humor pressure load rat model
# Experiment: Retinal thickness (IPL, INL, ONL) in retinal damage model induced by anterior chamber aqueous humor pressure load
# Type: in vivo, Rat; Slc: SD
# Details: compound 9 (pre), 1 mg/mL eye drop, right eye
# Description: • Name: Compound 9 • Source: Synthesized in the above Examples • Used amount: 0.4 mL (50 mg/mL solution) • Storage conditions: Freezing, light shielding
# Method for preparing test substance (1 mg/mL): A high concentration solution prepared at 50 mg/mL was diluted 50 times with a medium to prepare a 1 mg/mL administration solution.
# • Name: MK-801 • Distributor: SIGMA-ALDRICH • Use amount: 0.0501 g • Storage condition: refrigerated (2° C. to 8° C.)
# Method for preparing positive control substance (10 mg/mL): 0.0501 g was weighed out and made up to a total volume of 5 mL with a control substance (physiological saline).
# • Species and strains: Rat; Slc: SD • Number of animals on arrival and sex: 50 males • Age in weeks at arrival: 6 weeks old • Body weight range at arrival: 147.2 to 170.0 g • Source: Japan SLC, Inc.
# Grouping was performed two days before the first creation of the retinal damage model induced by an anterior chamber aqueous humor pressure load. Using the daily body weight as an index, stratified random allocation was performed using SAS (Ver. 9.3, SAS Institute Japan Ltd.) and EXSUS (Ver. 8.0, CAC Croit Corporation) so that an average value of the body weights of each group was approximately uniform.
# • Administration route: Eyedrop administration, intravenous administration • Administration method (eyedrop): Eyedrop administration was performed on a treated eye (right eye) of a rat using a micropipette 4 times a day (at intervals of 1.5 hours or more). • Administration method (intravenous): The amount of administration solution, calculated from the body weight on the day of administration, was administered from the tail vein using a syringe and an injection needle about 30 minutes before ischemic load. • Time of administration: Administration was performed according to the following schedule.
# 1. 10 mg/kg xylazine hydrochloride was intramuscularly administered on the model creation day (day 0). A rat was placed in an anesthesia box and subjected to general anesthesia with isoflurane (5%, oxygen:nitrous oxide=1:3). When anesthesia was effective, the rat was taken out of the anesthesia box, an inhalation anesthetic mask was worn, and anesthesia was maintained with isoflurane (1% to 5%, oxygen nitrous oxide=1:3).
# 2. The body temperature was maintained at 37° C. with a warming mat, and a mydrin P ophthalmic solution was instilled in the right eye (treated eye) of the rat to dilate the pupil, then the cravit ophthalmic solution 1.5% (Santen Pharmaceutical Co., Ltd.) was instilled.
# 3. A bottle of an IV bag containing physiological saline was previously suspended so that a water surface was 155 cm (100 mmHg or more) higher than the eye of the rat. The IV bag was connected to a pediatric infusion set (Terumo Corporation), a 27 G injection needle thereof was inserted into and fixed to the anterior chamber while slightly dripping the liquid from a needle tip. The model was created in the light phase (6:00 to 18:00) in consideration of the diurnal variation of the intraocular pressure.
# 4. After the needle was inserted into the anterior chamber, pressure (100 mmHg or more) was loaded and maintained in the anterior chamber by associating the reflux system.
# 5. After an ischemic load for 45 minutes, the injection needle and the like were removed, the inhalation anesthetic mask was removed, and the rat was sufficiently woken up under a warming mat, and then returned to the cage.
# 6. For 2 days after surgery, 10 mg/kg xylazine hydrochloride was intramuscularly administered as an analgesic for the purpose of alleviating the pain after the treatment.
# 1. Fourteen days after model creation, general anesthesia was performed with isoflurane (5%, oxygen:nitrous oxide=1:3), euthanasia was then performed by exsanguination, a suture was placed as a marker at the 12 o'clock position of the ocular conjunctiva, and eyeball enucleation was performed.
# 2. […]
smiles,measurement,setting,value
CC[C@@]1(C)Oc2cc(ccc2O)C[C@H](NC)C(=O)N[C@@H](C(C)C)C(=O)N[C@@H]1C(=O)N[C@@H](CC(=O)O)C(=O)O [Compound 9],"Thickness of ONL, distance from optic disk 900 μm (single measurement)",individual animals 201-210,39.011 μm and 42.742 μm and 45.091 μm and 47.744 μm and 45.684 μm and 43.996 μm and 37.237 μm and 36.389 μm and 38.143 μm and 43.578 μm and 39.518 μm and 41.375 μm and 35.794 μm and 34.452 μm and 41.663 μm and 42.383 μm and 44.814 μm and 41.883 μm and 43.824 μm and 46.139 μm and 43.354 μm and 38.661 μm and 41.202 μm and 40.552 μm and 46.165 μm and 45.398 μm and 48.471 μm and 47.795 μm and 47.248 μm and 46.278 μm
same,"Thickness of ONL, distance from optic disk 300 μm (single measurement)","individual animals 201-210, aqueous humor pressure load rat model",50.813 μm and 51.311 μm and 53.250 μm and 34.452 μm and 30.709 μm and 34.312 μm and 40.039 μm and 41.413 μm and 11.468 μm and 39.811 μm and 37.328 μm and 39.938 μm and 33.741 μm and 35.794 μm and 35.603 μm and 42.742 μm and 44.362 μm and 44.355 μm and 36.433 μm and 40.355 μm and 37.980 μm and 39.617 μm and 40.341 μm and 39.065 μm and 40.883 μm and 41.062 μm and 40.112 μm and 37.690 μm and 36.851 μm and 39.911 μm
same,"Thickness of INL (μm), Distance from Optic Disk 300 μm","300 μm from optic disk, individual measurements per animal",33.065 μm (2×) and 33.507 μm and 34.677 μm and 27.561 μm and 24.567 μm and 22.703 μm and 32.389 μm and 34.110 μm and 29.740 μm and 25.207 μm and 23.667 μm and 23.845 μm and 26.312 μm and 23.484 μm and 24.843 μm and 33.881 μm and 35.521 μm and 29.211 μm and 29.882 μm and 27.608 μm and 23.876 μm and 25.810 μm and 24.277 μm and 32.198 μm and 33.996 μm and 30.756 μm and 28.424 μm and 29.579 μm and 30.220 μm
same,"Thickness of IPL (μm), Distance from Optic Disk 300 μm","300 μm from optic disk, individual measurements per animal, listed as compond 9",30.656 μm and 25.003 μm and 29.032 μm and 29.077 μm and 33.909 μm (2×) and 31.903 μm and 34.939 μm and 37.800 μm and 36.389 μm and 29.133 μm and 28.638 μm and 29.937 μm and 29.144 μm (2×) and 35.013 μm and 33.871 μm and 31.072 μm and 34.110 μm and 29.907 μm and 35.630 μm and 33.931 μm and 27.028 μm and 28.472 μm and 34.310 μm and 34.680 μm and 32.998 μm and 28.183 μm and 25.310 μm and 26.057 μm
same,"Thickness of INL (μm), Distance from Optic Disk 300 μm, Mean","300 μm from optic disk, mean per animal",33.750 μm and 24.944 μm and 32.080 μm and 24.240 μm and 24.880 μm and 34.156 μm and 28.900 μm and 24.654 μm and 32.317 μm and 29.408 μm
same,"Thickness of IPL (μm), Distance from Optic Disk 300 μm, Mean","300 μm from optic disk, mean per animal, listed as compond 9",28.230 μm and 31.630 μm and 36.376 μm and 29.236 μm and 31.100 μm and 32.951 μm and 33.216 μm and 29.810 μm and 33.996 μm and 26.517 μm
same,"Thickness of INL (μm), Distance from Optic Disk 600 μm","600 μm from optic disk, individual measurements per animal",33.065 μm and 33.351 μm and 31.150 μm and 27.855 μm and 34.827 μm and 31.493 μm and 24.207 μm and 30.656 μm and 26.506 μm and 25.323 μm and 34.640 μm and 33.153 μm and 30.688 μm and 31.462 μm and 25.000 μm and 25.819 μm and 36.789 μm and 36.469 μm and 35.907 μm and 35.051 μm and 38.781 μm and 30.223 μm and 27.431 μm and 28.512 μm and 22.710 μm and 34.691 μm and 32.298 μm and 28.240 μm and 38.410 μm and 32.790 μm
same,"Thickness of IPL (μm), Distance from Optic Disk 600 μm","600 μm from optic disk, individual measurements per animal, listed as compond 9",35.272 μm and 36.967 μm and 39.787 μm and 38.516 μm and 42.129 μm and 44.421 μm and 35.566 μm and 35.907 μm and 34.333 μm and 35.134 μm and 37.963 μm and 38.006 μm and 42.772 μm and 42.744 μm and 37.116 μm and 32.671 μm and 45.118 μm and 45.778 μm and 34.473 μm and 36.322 μm and 37.125 μm and 37.847 μm and 44.472 μm and 36.393 μm and 35.013 μm and 40.678 μm and 44.362 μm and 37.009 μm and 45.280 μm and 36.469 μm
same,"Thickness of INL (μm), Distance from Optic Disk 600 μm, Mean","600 μm from optic disk, mean per animal",35.066 μm and 29.743 μm and 31.250 μm and 27.792 μm and 24.846 μm and 34.161 μm and 31.483 μm and 26.353 μm and 37.223 μm and 34.583 μm
same,"Thickness of IPL (μm), Distance from Optic Disk 600 μm, Mean","600 μm from optic disk, mean per animal, listed as compond 9",36.455 μm and 38.717 μm and 43.674 μm and 35.955 μm and 34.827 μm and 38.882 μm and 43.293 μm and 35.599 μm and 45.392 μm and 35.755 μm
